What all share (test): inhibition of tumour cell growth, NCI panel, 48 h
Experiment [1] relates to TK-10 renal.
Experiment [2] relates to SF-295 CNS.
In experiment [3] the test system is SK-MEL-28 melanoma.
In experiment [4] the test system is SF-268 CNS.
Experiment [5] concerns MOLT-4 leukemia.
Experiment [6] has as its system DU-145 prostate.
Experiment [7] concerns HCT-116 colon.
Experiment [8] concerns RXF 393 renal.
Experiment [9] deals with HCT-15 colon.
In experiment [10] the test system is 786-0 renal.
Experiment [11] relates to SW-620 colon.

The values below come from PubChem BioAssay (NCI).

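In this assay, cells in 96-well plates receive the compound at five concentrations for 48 hours. Endpoints are linearly interpolated between the surrounding concentrations. TGI marks complete inhibition of growth.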 Some results are limits rather than exact numbers.

For the compound `CCOC(=O)C1CCCCN1C(=O)Cc1c[nH]c2ccccc12` (stereo unspecified), the TGI in [1], in experiment [2], in experiment [3], in experiment [4], in experiment [5] and in experiment [6] was more than 100 µM in each case. The TGI in [7], in [8], in [9], in [10] and in experiment [11] was more than 100 µM in each case.
As to `O=c1[nH]nc(-c2ccccc2)n1O`, the TGI in [1], in [2], in experiment [3], in experiment [4], in [5] and in experiment [6] was more than 100 µM each time. Further, the TGI in experiment [7], in experiment [8], in experiment [9], in [10] and in experiment [11] was more than 100 µM throughout.
On to `COc1cccc(C(=O)C#Cc2cnc(OC)nc2OC)c1`, for which the TGI in experiment [1] came out at 2.91 µM; in experiment [2], 31.7 µM; in experiment [3], 4.22 µM; in experiment [4] it was 6.14 µM; in [5] it was 0.7 µM; in experiment [6], 12.4 µM. Besides, the TGI is 7.67 µM in experiment [7]; 1.39 µM in experiment [8]; 0.516 µM in [9]; 3.61 µM in experiment [10]; 1.94 µM in experiment [11].
In the case of `CCC1C(c2ccccc2O)c2cc3c(cc2OC1N1CCOCC1)OCO3` (stereo unspecified), the TGI in [1] is 28 µM; in experiment [2], 28.6 µM; in experiment [3] it was 33.9 µM; in [4] it was 31.8 µM; in experiment [5], 27 µM; in experiment [6] it was 28 µM. Besides, the TGI in experiment [7] is 26.5 µM; in experiment [8], 28.9 µM; in [9], 21.4 µM; in experiment [10], 43.9 µM; in experiment [11], 33 µM.
Regarding `CC1(C)CC(=O)c2c(nc3c4c([nH]c(-c5ccc(Br)cc5)c24)CC(C)(C)C3)C1`, the TGI in [1], in experiment [2], in experiment [3], in experiment [4], in [5] and in experiment [6] was more than 100 µM in each case. The TGI in [7] was more than 100 µM; in experiment [8], 65.3 µM; in experiment [9] it was more than 100 µM; in [10] it was 91 µM; in experiment [11], more than 100 µM.
For `CC(C)(C)OC(=O)NCCCCC(N)NC(=O)c1ccccc1` (stereo unspecified), the TGI in [1], in [2], in experiment [3], in [4], in [5] and in experiment [6] was more than 100 µM each time. Moreover, the TGI in experiment [7], in [8], in experiment [9], in experiment [10] and in [11] was more than 100 µM throughout.
Consider `c1ccc(N=C2c3ccsc3C(=Nc3ccccc3)c3ccsc32)cc1`, for which the TGI turned out to be 13.7 µM in [1]; 3.11 µM in [2]; 3.97 µM in experiment [3]; 6.82 µM in [4]; 3.77 µM in experiment [5]; 3.12 µM in [6]. For the same compound, the TGI in experiment [7] was determined as 3.89 µM; in [8], 3.52 µM; in experiment [9], 4.12 µM; in [10], 6.25 µM; in experiment [11] it was 3.93 µM.
`C[N+](C)(C)c1ncnc2c1ncn2C1CCCO1` (stereo unspecified): the TGI in experiment [1], in experiment [2], in [3], in [4], in [5] and in experiment [6] was more than 100 µM each time. Also, the TGI in experiment [7], in experiment [8], in experiment [9], in experiment [10] and in [11] was more than 100 µM throughout.
Consider `CN=C(Nc1cccc(C(F)(F)F)c1)SCc1ccc(N=C=S)cc1`, for which the TGI in experiment [1] worked out at 23.5 µM; in experiment [2], 30.2 µM; in [3], 48.9 µM; in experiment [4], 73.3 µM; in experiment [5] it was 36 µM; in experiment [6], 31.2 µM. Besides, the TGI in experiment [7] was 29 µM; in experiment [8], 29.3 µM; in [9], 20.8 µM; in experiment [10] it was 31 µM; in experiment [11], 41 µM.
`COc1ccc(NC(=O)C(=O)/C=C(\O)c2ccccc2)cc1`: the TGI was more than 10 µM in experiment [1]; more than 10 µM in experiment [2]; more than 10 µM in experiment [3]; more than 10 µM in experiment [4]; 4.18 µM in [5]; more than 10 µM in [6]. Further, the TGI in experiment [8], in experiment [9], in experiment [10] and in [11] was more than 10 µM in each case.
For the compound `C=CCOc1ccc(C2C(C(=O)OC)C(=O)CC(O)(c3ccccc3)C2C(=O)OC)cc1OC` (stereo unspecified), the TGI was more than 100 µM in experiment [1]; more than 100 µM in experiment [2]; more than 100 µM in experiment [3]; 52.7 µM in experiment [4]; more than 100 µM in experiment [5]; more than 100 µM in [6]. The TGI in experiment [7] was 49.8 µM; in experiment [8], 37.2 µM; in [9], more than 100 µM; in experiment [10], 39 µM; in [11], more than 100 µM.
For the compound `COc1cc(CNc2nc3ccccc3nc2C(=O)O)cc(OC)c1OC`, the TGI in experiment [1], in experiment [2], in experiment [3], in [4], in experiment [5] and in [6] was more than 100 µM each time. The TGI in experiment [7], in experiment [8], in experiment [9], in experiment [10] and in [11] was more than 100 µM in each case.
Regarding `COc1ccc(C(=O)/C=C/c2ccc(OCC#N)cc2)cc1`, the TGI is more than 100 µM in [1]; more than 100 µM in [2]; 32.9 µM in [3]; more than 100 µM in experiment [4]; 77.1 µM in experiment [5]; 81.7 µM in experiment [6]. The TGI was 24.6 µM in [7]; 30.7 µM in experiment [8]; 54.7 µM in experiment [9]; more than 100 µM in [10]; 33.6 µM in experiment [11].
Take `Cc1cnc2c(c1C)C(=O)c1ccccc1C2=O`: the TGI in [1], in [2], in [3], in experiment [4], in experiment [5] and in experiment [6] was more than 100 µM each time. Further, the TGI is more than 100 µM in [7]; more than 100 µM in experiment [8]; 88.1 µM in experiment [9]; more than 100 µM in experiment [10]; more than 100 µM in experiment [11].
In the case of `CCCc1[nH]c2ccccc2c1-c1c(CCC)[nH]c2ccccc12`, the TGI in experiment [1] was 50.9 µM; in [2], 32.8 µM; in experiment [3] it was 21.6 µM; in experiment [4], 28.3 µM; in experiment [5], more than 100 µM; in [6] it was 35 µM. In addition, the TGI in [7] amounted to 15.2 µM; in experiment [8], 37.6 µM; in experiment [9] it was 23.5 µM; in experiment [10], 31.4 µM; in [11], 23.7 µM.
`CSc1c(C#N)c(N)n(-c2ccc(Cl)cc2)c(=O)c1C#N`: the TGI in experiment [1], in [3], in experiment [4], in experiment [5], in [6] and in experiment [7] was more than 100 µM throughout. Moreover, the TGI in experiment [8], in [9], in experiment [10] and in [11] was more than 100 µM each time.
For the compound `C=CCC1(C)CCCN(Cc2ccccc2)C1=O` (stereo unspecified), the TGI in experiment [1], in experiment [2], in experiment [3], in experiment [4], in [5] and in experiment [6] was more than 10 µM throughout. Besides, the TGI in experiment [7], in [8], in [9], in experiment [10] and in experiment [11] was more than 10 µM each time.
In the case of `CC(C)/C(Cl)=N/OC(=O)Nc1ccc(Cl)c(Cl)c1`, the TGI in experiment [1] was determined as 10.9 µM; in experiment [2], 32.2 µM; in [3], 8.5 µM; in experiment [4], 34.8 µM; in [5], 6.2 µM; in experiment [6], 32.5 µM. In addition, the TGI in experiment [7] turned out to be 4.65 µM; in experiment [8] it was 26.7 µM; in experiment [9], 5.59 µM; in [10] it was 3.46 µM; in experiment [11], 4.35 µM.
Consider `CN(CCCNC(=O)c1cc(-c2ccccc2)nc2ccccc12)CCCNC(=O)c1cc(-c2ccccc2)nc2ccccc12`, for which the TGI in experiment [1] is 14.9 µM; in [2], 3.31 µM; in experiment [3], 3.27 µM; in experiment [4], 14 µM; in [5], 5.33 µM; in experiment [6], 9.49 µM. For the same compound, the TGI in [7] turned out to be 3.33 µM; in [8] it was 16 µM; in experiment [9], 12.2 µM; in [10] it was 3.18 µM; in [11], 3.38 µM.
Consider `CC1CC(C#N)=C2NCCN2C1=O` (stereo unspecified), for which the TGI in [1], in [2], in experiment [3], in experiment [4], in experiment [5] and in [6] was more than 100 µM each time. The TGI in experiment [8], in [9], in experiment [10] and in [11] was more than 100 µM each time.
Take `CCN(CC)C1Oc2cc3c(cc2C(c2cccc(OC)c2OC)C1C)OCO3` (stereo unspecified): the TGI was 46.3 µM in experiment [1]; 16.3 µM in experiment [2]; 50.6 µM in experiment [3]; more than 100 µM in [4]; 23.7 µM in experiment [5]; 23.9 µM in experiment [6]. Besides, the TGI is 12.8 µM in experiment [7]; 11.8 µM in experiment [8]; more than 100 µM in experiment [9]; 22.7 µM in experiment [10]; 77 µM in [11].
`Cc1cc2c(cc1C)[n+](=O)c(C(=O)c1ccccc1)c(C(F)(F)F)n2[O-]`: the TGI in experiment [1] is 12.7 µM; in [2], 10.6 µM; in experiment [3], 16.4 µM; in experiment [4] it was 7.71 µM; in experiment [5], more than 28.3 µM; in experiment [6] it was 3.15 µM. Besides, the TGI in [7] was 10.6 µM; in [8], 12.9 µM; in experiment [9] it was more than 34.4 µM; in experiment [10], 14.7 µM; in [11], 21.2 µM.
With `CN(C)CCc1c2c(nc3ccccc13)C(=O)c1cccnc1C2=O`, the TGI in [1] worked out at 2.94 µM; in experiment [2], 1.03 µM; in experiment [3] it was 1.76 µM; in [4], 2.69 µM; in experiment [5] it was 6.71 µM; in [6] it was 1.22 µM. Moreover, the TGI in experiment [7] stood at 0.344 µM; in experiment [8], 1.26 µM; in [9] it was 0.927 µM; in experiment [10], 0.759 µM; in experiment [11], 1.91 µM.
In the case of `CCCCNc1nc(NC2OCC(OC(C)=O)C(OC(C)=O)C2OC(C)=O)c(N=O)c(=O)n1C` (stereo unspecified), the TGI in [1], in experiment [2], in [3], in [4], in experiment [5] and in [6] was more than 10 µM in each case. Moreover, the TGI in [7], in [8], in experiment [9], in experiment [10] and in experiment [11] was more than 10 µM in each case.
Take `C=C(C)[C@@H]1CC[C@]2(C(=O)OC)CC[C@]3(C)[C@H](CC[C@@H]4[C@@]5(C)CC[C@H](O)C(C)(C)[C@@H]5CC[C@]43C)[C@@H]12`: the TGI in experiment [2] is 34.4 µM; in [3] it was 47.2 µM; in [4] it was 67.3 µM; in experiment [5], 44.6 µM; in experiment [6] it was more than 100 µM; in experiment [7], 37.4 µM. In addition, the TGI in [8] is 38.9 µM; in experiment [9], 50.6 µM; in experiment [10], 45.9 µM; in [11] it was 38.8 µM.
